Source: patent US20210025110A1, “ORGANIC ANTIMICROBIAL TEXTILE” (Livinguard AG, priority 2018, published 2021)

Assays:
[1] = system: P. aeruginosa ATCC 9027; assay: AATCC 100-2012 antimicrobial performance of treated textile, P. aeruginosa; assay type: cell-based
Experimental: (§1) Antimicrobial performance of antimicrobial textiles according to the invention were performed following the AATCC 100-2012 test method. The AATCC 100-2012 test procedure for antimicrobial performance is described in detail in AATCC Technical Manual 2013, p. 166-168. Briefly, 3 circular swatches of 48 mm diameter were prepared from autoclaved (121° C., 15 min) textile samples, and a defined number of swatches was added to a 250 ml Erlenmeyer flask. 1 ml of prepared inoculum (in phosphate buffered water) was spot onto the swatches. […] The 0 minute contact time was immediately analyzed after inoculation. For the other contact times, the Erlenmeyer flask was sealed immediately after inoculation and incubated at 37° C. for the respective contact times. After the defined contact time, 100 ml of Dey-Engley Neutralizing broth was added to each flask, and the flask was shaken for one minute by hand. A dilution series was prepared and each dilution sample was plated on a nutrient agar. Agar plates were incubated at 37° C. for 24 and 48 hours. The Log Reduction (R) of bacteria was calculated by: B[log(number bacteria recovered from the inoculated treated test specimen swatches in the jar immediately after inoculation, i.e. at 0 contact time)]−A[log(number of bacteria recovered from the inoculated treated test specimen swatches in the jar incubated over the desired contact period)].

[2] = system: S. aureus ATCC 6538; assay: AATCC 100-2012 antimicrobial performance of treated textile, S. aureus; assay type: cell-based, Staphylococcus aureus
Experimental: as §1

[3] = system: E. coli; assay: AATCC 100-2012 antimicrobial performance of treated textile, E. coli; assay type: cell-based

Structure (SMILES) | Log Reduction (R) after 30 min, P. aeruginosa ([1]; Table 2, 100% viscose, L-carnitine, 0 or 10 washes per sample ID, 30 min contact) [Log cfu/ml] | reduction of P. aeruginosa after 30 minutes ([1]; Table 2 textiles, L-carnitine on viscose, 30 min) [%] | Log Reduction (R) after 1 hour, S. aureus ([2]; Table 1, 100% viscose, L-arginine, 10 washes, 1 hour contact) | reduction of S. aureus after 1 hour ([2]; Table 1 textiles, L-arginine on viscose, 1 hour) | reduction of E. coli after 24 hours ([3]; Table 10, L-arginine 12% on cotton) [%] | Log Reduction (R) after 24 hours against E. coli, wash cycle 0 (unwashed) ([3]; Table 10, 100% cotton, L-arginine 120 gpl, liquor pH per sample ID, unwashed, 24 hours) [Log cfu/ml] | Log Reduction (R) after 10 min, P. aeruginosa ([1]; Table 1, 100% viscose, L-arginine, 10 washes, 10 min contact) [Log cfu/ml] | reduction of P. aeruginosa after 10 minutes ([1]; Table 1 textiles, L-arginine on viscose, 10 min) [%]
C[N+](C)(C)C[C@H](O)CC(=O)O [L-carnitine] | 2.82 | > 99 | – | – | – | – | – | –
N=C(N)NCCC[C@H](N)C(=O)O [L-arginine] | – | – | about 1 Log cfu/ml | about 90% | > 99.99 | > 4.41 | 2.76 | > 99
